This note sets out measurements from patent publication US10203334B2, “Methods and compositions related to nucleic acid binding assays” (Nubad, LLC, priority 2012, dated 2019).

Each structure is given as a SMILES string.

Format in all cases: binding
The subject of test [1] is RNA duplex poly(rA).poly(rU). Kind of test: Competition dialysis. The settings on record: under these salt conditions (100-200 mM Na^+). The text has this: (§1) Disclosed is the use of fluorescent aminosugar probes such as F-neo (42a) to probe a variety of nucleic acid targets. Competition dialysis was used as a nucleic acid screening technique to illustrate the binding of F-neo (42a) to different nucleic acid structures.
(§2) Competition dialysis studies using a fluorescein-neomycin conjugate (F-neo (42a)). […] Comparative binding of F-neo (42a) to 13 different nucleic acid structures was examined which included single strand nucleic acids [poly(dT), poly(A), poly(U)], duplexes [poly(dA).poly(dT), poly(rA).poly(dT), poly(rA).poly(rU), poly(dA).poly(rU), poly(dG).poly(dC), calf thymus], triplexes [poly(dA).2poly(dT), poly(rA).2poly(rU)], i-motif (polydC) and 16S A-site rRNA (SEQ ID No. 1). The amount of F-neo (42a) bound to each nucleic acid is shown as a bar graph in FIG. 13. Because all nucleic acids are dialyzed simultaneously in the same ligand solution, the amount of bound F-neo (42a) is directly proportional to its affinity for each nucleic acid. […] 200 μL of different nucleic acids (7.5 μM per monomeric unit of each polymer) was dialyzed for 72 h with 400 mL 100 nM ligand in 6 mM Na2HPO4, 2 mM NaH2PO4, 1 mM Na2EDTA, pH 7.0 and various Na+ concentrations as indicated.
(§3) F-neo (42a) prefers to bind to 16S A-site rRNA yielding a bound ligand concentration of 85 nM in 100 mM Na^+, 50 nM in 150 mM Na^+, and 15 nM in 200 mM Na^+ is shown in FIG. 15.

Test [2] has as its system RNA triplex poly(rA).2poly(rU). Kind of test: Competition dialysis.
Excerpt: as §1, §2, §3

The test system of test [3] is DNA duplex poly(dA).poly(dT), hybrid duplex poly(rA).poly(dT), calf thymus DNA, i-motif DNA, and all single-stranded nucleic acids. Kind of test: Competition dialysis.
Excerpt: as §1, §2, §3

Test [4] deals with hybrid duplex poly(dA).poly(rU). Kind of test: Competition dialysis. The settings on record: under these salt conditions (100-200 mM Na^+).
Excerpt: as §1, §2, §3

For test [5], the system named is E. coli ribosomal A-site oligonucleotide (SEQ ID No. 1). Kind of test: 96-well F-neo displacement HTS on ribosomal A-site. The settings on record: 96-well plate reader; 0.30 mM F-neo and 0.3 mM A-site oligonucleotide. From the text:
[drawing 24] where FHNeo represents the protonated form of F-neo. F(-)Neo, upon binding to nucleic acids such as DNA or RNA, is destabilized by the nucleic acid backbone negative potential, shifting the equilibrium towards FH, making F-neo a weaker acid, raising the pKa, which is what we observe upon binding to the A-site. For the A-site targeted assay, we calculated the Z' factor (Z=1-3(2.7+2.8)/(414-267)=0.89. […] Provided is a detailed example for the development of a HTS by the displacement of a fluorescene-neomycin (F-neo (42a)) from rRNA A-site oligonucleotide (SEQ ID No. 1) using a 96 well plate format and a fluorescent plate reader. […] This HTS involves the displacement of a fluorescene-neomycin (F-neo (42a)) by potential RNA binding molecules in a 96 well plate format using a fluorescent plate reader. […] F-neo based RNA binding assays have been performed using a fluorescence spectrophotometer with a 96-well plate reader and results recorded in FIG. 4. […] Fo is defined as the baseline fluorescence intensity of the RNA/F-neo complex and F is the intensity with added drug. The difference between the fluorescence intensity baseline of F-neo/A-site complex and complex with added drug (F-Fo) indicates the extent of the competition of drug for the binding site, this allows the relative binding affinities of aminoglycosides to be established. […]

With `NCC1O[C@H](OC2C(O)C(OC3C(O)[C@H](N)CC(N)[C@H]3O[C@H]3OC(CN)[C@@H](O)C(O)C3N)O[C@@H]2CSCCNC(=O)CCSCC(=O)Nc2ccc(-c3c4ccc(=O)cc-4oc4cc(O)ccc34)c(C(=O)O)c2)C(N)C(O)[C@@H]1O` (stereo partly shown) [F-neo (42a), Neomycin-Fluorescein Conjugate], the bound drug in test [1] and in test [4] was 10 to 20 nM throughout. Moreover, the “bound F-neo (42a)” value in test [2] (100 mM Na^+) is recorded as 60 nM; in test [2] (150 mM Na^+) it was 20 nM; in test [2] (200 mM Na^+), 5 nM. Moreover, the “binding in competition dialysis” value in test [3] is listed as “moderate to very weak binding”. For the same molecule, in test [5], the “reduction in fluorescence intensity on addition of A-site” value came to 2 fold.
